Measured values: patent US9359452B2, “Isolation and characterisation of heparan sulphates and their use in pharmaceutical compositions, methods of treatment and stem cell culture media suitable for conditions associated with bone repair” (Agency for Science, Technology and Research, priority 2009, dated 2016)
Entries after “also recorded” stand apart in the source; their conditions may differ.

Columns and labels:
hMSCs = experiment: hMSC proliferation with or without FGFR1 inhibitor SU5402, 5 days; type: cell-based, human
[1] = tested on: Bovine aortic smooth muscle cells (BASMC); settings: literature (Yang et al); cited from earlier work
[2] = tested on: human mesenchymal stem cells (hMSC); experiment: hMSC proliferation, viable cell count (GUAVA Viacount) in maintenance medium; type: cell-based; settings: normal growth medium; data not shown
Method: (§1) Human mesenchymal stem cells (hMSCs) (Cambrex, USA) were plated in maintenance medium consisting of DMEM (1000 mg/L glucose), 10% fetal calf serum (FCS), 2 mM L-glutamine and 100 U/ml penicillin-streptomycin sulfate at 37° C. in a humidified atmosphere with 5% CO2. To assess their proliferation, assays were performed to determine cell number utilizing the GUAVA PCA-96 System (GUAVA Technologies) as per the manufacturer's instructions. Briefly, cells were seeded at 3,000 cells/cm^2 in 48-well plates and allowed to adhere overnight. […] Proliferation of cells was assessed by Guava viacount on 1, 3, 5 and 7 day to determine the total viable cells. Cells were washed in PBS, pelleted with 0.125% trypsin, the trypsin neutralized, the pellet resuspended in 400 μl of PBS with the addition of 4 μl of Flex reagent, incubated for 10 min and cell number and viability determined utilizing the GUAVA Viacount software.
Human mesenchymal stem cells (hMSCs) were plated in maintenance medium consisting of DMEM (1000 mg/L glucose), 10% fetal calf serum (FCS), 2 mM L-glutamine and 100 U/ml penicillin-streptomycin sulfate at 37° C. in a humidified atmosphere with 5% CO2. To assess their proliferation, assays were performed to determine cell number utilizing the GUAVA PCA-96 System (Millipore, USA) as per the manufacturer's instructions.
Briefly, cells were seeded at 3,000 cells/cm^2 in 48-well plates and allowed to adhere overnight. […] Proliferation of cells was assessed on days 1, 3, 5 and 7 to determine total viable cells. Cells were washed in PBS, pelleted with 0.125% trypsin, the trypsin neutralized, the pellet resuspended in 400 μl of PBS with the addition of 4 μl of Flex reagent, incubated for 10 min and cell number and viability determined utilizing the GUAVA Viacount software.

[3] = tested on: human mesenchymal stem cells (hMSC); experiment: hMSC proliferation, viable cell count in osteogenic medium; type: cell-based; settings: data not shown
Method: (§2) FIG. 5. Effect of male and female liver HS on the growth of hMSC in maintenance and osteogenic medium. Cells were cultured for 7 days in normal maintenance medium in the presence of different concentrations (12.5 μg/ml or 1.25 μg/ml or 625 ng/ml or 312 ng/ml or 156 ng/ml) of male liver HS (A), and female liver HS (B). Cells were cultured for 7 days in osteogenic medium in the presence of different concentrations (12.5 μg/ml or 625 ng/ml or 312 ng/ml) of male liver HS (C), and female liver HS (D). Viable cell counts were determined at day 1, 3, 5 and 7. (E) The importance of FGFR signaling for HS activity was investigated by supplementing serum starved sub confluence cultures with male or female. HS (2.5 μg/ml) or FGF2 (2.5 ng/ml) in the presence or absence of an FGFR1 inhibitor (SU5402 at 20 μM) for 60 min. Total protein was extracted for Western blotting and first probed for activated ERK1/2 expression (pERK1/2). Membranes were then striped and reprobed with anti ERK1/2 antibody. (F) The amount of pERK1/2 protein was determined by densitometry. […]
as §1, with “CO2.” for “CO2. To assess their proliferation, assays were performed to determine cell number utilizing the GUAVA PCA-96 System (GUAVA Technologies) as per the manufacturer's instructions. Briefly, cells were seeded at 3,000 cells/cm^2 in 48-well plates and allowed to adhere overnight.”
To assess the possibility of structural differences identified between the male and female liver HS to modulate hMSC proliferation, hMSCs were treated with varying concentration of HS and viable cell number was counted over a 7-day culture period in normal maintenance or differentiation (osteogenic) medium.

ERK1/2 = ERK1/2 phosphorylation in serum-starved hMSC (Western blot); type: cell-based, human; settings: SU5402 at 20 μM, 60 min, with male or female HS 2.5 μg/ml
Method: as §2
MSCs were seeded in designated media at 5,000/cm^2 in six-well plates and cultured until subconfluent. […] Protein content was determined using a Protein Assay Kit (Bio-Rad) following the manufacturer's instructions. […]

Compound | effect on BASMC mineralization [1] | hMSC proliferation compared to 10% serum [2] | effect on hMSC proliferation [3] | also measured
FGF2 |  |  |  | effect on hMSC proliferation (hMSCs; FGF2 2.5 ng/ml): induced proliferation
N-desulfated heparin | no inhibition; also recorded: no inhibitory activity |  |  | 
2-de-O-sulfated heparin |  | less effect on proliferation | no effect; also recorded: neither de-N-sulfated, 2-de-O-sulfated nor 6-de-O-sulfated heparin had any effect | 
dermatan sulfate | no inhibition; also recorded: no inhibitory activity |  |  | 
6-de-O-sulfated heparin |  | less effect on proliferation | no effect; also recorded: neither de-N-sulfated, 2-de-O-sulfated nor 6-de-O-sulfated heparin had any effect | 
heparin [highly sulfated heparin] | inhibited |  |  | 
de-N-sulfated heparin |  | does not increase hMSC proliferation; also recorded: failed to improve hMSC proliferation | no effect; also recorded: neither de-N-sulfated, 2-de-O-sulfated nor 6-de-O-sulfated heparin had any effect | 
Cc1c[nH]c(/C=C2\C(=O)Nc3ccccc32)c1CCC(=O)O [SU5402] |  |  |  | effect on liver HS-stimulated ERK1/2 phosphorylation (ERK1/2): blocked; effect on basal growth of hMSCs (hMSCs; SU5402 at 20 μM): inhibitory effect; effect on HS and FGF2 induced proliferation (hMSCs; SU5402 at 20 μM, male HS 2.5 μg/ml or FGF2 2.5 ng/ml): preventing HS and FGF2 induced proliferation
